Test results reported in patent US20230295157A1, “3-(1H-IMIDAZOL-2-YL)-2,3,8,8A-TETRAHYDROINDOLIZIN-5(1H)-ONE DERIVATIVES USEFUL AS FACTOR XIA INHIBITORS” (JANSSEN PHARMACEUTICA NV, priority 2020, published 2023).
Where two headings read alike, the source gives them in different places.

Key:
human plasma kallikrein = human plasma kallikrein (Homo sapiens (Human), UniProt P03952); assay: Kallikrein inhibition assay (FLINT) utilizing a quenched AMC peptide substrate; type: biochemical; settings: 30 min preincubation, read-out: Kallikrein Kin Inh IC50
Outline: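 Fluorogenic Z-Gly-Pro-Arg-AMC cleavage (50 μM substrate, 2 nM kallikrein, Tris pH 7.5, CaCl2, BSA, CHAPS, 2% DMSO) read kinetically at 340/440 nm for 30 min after 30-min compound pre-incubation. Compounds in 11-point 3-fold series from 1 μM; percent inhibition fitted to four-parameter equation for IC50.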

Factor XIa = Factor XIa (Homo sapiens (Human), UniProt P03951); assay: Factor XIa inhibition assay (FLINT) utilizing a fluorophore-quencher pair peptide substrate; type: biochemical; settings: 30 min preincubation, read-out: FXIa Kin Inh IC50
Outline: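 FXIa ([…]) preincubated 30 min with compound (11-point 3-fold dilution, top 100 nM, 2% DMSO), then 15 μM quenched FXI Arg146-based peptide added; Tris pH 7.5, CaCl2, BSA, CHAPS. Fluorescence 485/520 nm read kinetically every 5 min over 30 min at RT; IC50 by 4-parameter fit.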

[1] = kinetic reads over 30 min, Z-Gly-Pro-Arg-AMC substrate 50 μM
[2] = kinetic reads over 30 min, 5Fam-KLTRAETV-K5Tamra substrate 15 μM

Chain of Factor XIa (P03951 388-625): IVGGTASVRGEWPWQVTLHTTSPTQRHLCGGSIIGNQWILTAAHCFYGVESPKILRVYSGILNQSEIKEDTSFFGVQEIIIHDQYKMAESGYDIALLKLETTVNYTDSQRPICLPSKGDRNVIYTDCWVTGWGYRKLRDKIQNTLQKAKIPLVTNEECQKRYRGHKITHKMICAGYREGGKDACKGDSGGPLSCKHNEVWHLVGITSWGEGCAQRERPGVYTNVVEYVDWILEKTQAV
Chain of Factor XIa (P03951 19-387 partner): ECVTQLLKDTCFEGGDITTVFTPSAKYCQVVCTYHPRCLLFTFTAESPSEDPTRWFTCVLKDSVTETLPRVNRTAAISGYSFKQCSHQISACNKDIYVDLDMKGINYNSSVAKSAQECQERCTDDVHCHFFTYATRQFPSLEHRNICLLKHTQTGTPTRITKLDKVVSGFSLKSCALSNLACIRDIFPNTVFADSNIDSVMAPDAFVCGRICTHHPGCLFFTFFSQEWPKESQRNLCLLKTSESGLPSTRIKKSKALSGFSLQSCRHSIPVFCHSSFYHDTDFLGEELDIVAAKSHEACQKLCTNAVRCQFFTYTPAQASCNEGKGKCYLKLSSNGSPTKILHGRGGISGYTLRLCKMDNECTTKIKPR
Chain of human plasma kallikrein (P03952 391-638): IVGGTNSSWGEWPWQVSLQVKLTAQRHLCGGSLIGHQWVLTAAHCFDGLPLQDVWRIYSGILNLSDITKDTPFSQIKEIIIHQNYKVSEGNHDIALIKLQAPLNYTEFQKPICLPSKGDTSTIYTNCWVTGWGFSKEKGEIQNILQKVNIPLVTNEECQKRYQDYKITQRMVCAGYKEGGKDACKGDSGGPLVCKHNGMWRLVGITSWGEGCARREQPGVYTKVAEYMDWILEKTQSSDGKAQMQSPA
Chain of human plasma kallikrein (P03952 20-390 partner): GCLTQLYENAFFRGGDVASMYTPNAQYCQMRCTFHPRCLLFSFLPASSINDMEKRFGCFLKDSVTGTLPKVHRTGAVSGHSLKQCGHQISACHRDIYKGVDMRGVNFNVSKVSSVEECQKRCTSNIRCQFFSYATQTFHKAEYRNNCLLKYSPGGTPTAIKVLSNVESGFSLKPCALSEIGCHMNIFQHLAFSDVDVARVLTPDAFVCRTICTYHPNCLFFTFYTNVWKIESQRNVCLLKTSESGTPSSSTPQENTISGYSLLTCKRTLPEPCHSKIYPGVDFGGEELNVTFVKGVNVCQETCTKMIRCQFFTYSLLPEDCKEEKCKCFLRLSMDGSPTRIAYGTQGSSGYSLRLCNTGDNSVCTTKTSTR

| SMILES | IC50 (human plasma kallikrein; [1]) [µM] | IC50 (Factor XIa; [2]) [µM] | IC50 (human plasma kallikrein; μM, kinetic reads) [µM] | IC50 (Factor XIa; μM, kinetic reads) [µM] | IC50 (Factor XIa; kinetic reads over 30 min, 5Fam-[…]-K5Tamra substrate 15 μM) [µM] |
| --- | --- | --- | --- | --- | --- |
| COC(=O)Nc1ccc(-c2cnc([C@@H]3CC[C@H]4CC(c5c(-n6cnnn6)ccc(Cl)c5F)=CC(=O)N43)[nH]2)cc1 [Example 340, Methyl (4-(2-((3S,8aS)-7-(3-chloro-2-fluoro-6-(1H-tetrazol-1-yl)phenyl)-5-oxo-1,2,3,5,8,8a-hexahydroindolizin-3-yl)-1H-imidazol-5-yl)phenyl)carbamate] | 0.0019 | 0.0003 | – | – | – |
| COC(=O)Nc1ccc(-c2cnc([C@@H]3CC[C@@H]4CC(c5c(-n6cnnn6)ccc(Cl)c5F)=CC(=O)N43)[nH]2)cc1 [Example 341, Methyl (4-(2-((3S,8aR)-7-(3-chloro-2-fluoro-6-(1H-tetrazol-1-yl)phenyl)-5-oxo-1,2,3,5,8,8a-hexahydroindolizin-3-yl)-1H-imidazol-5-yl)phenyl)carbamate] | 0.0013 | 0.0002 | – | – | – |
| O=C(O)c1ccc(-c2cnc([C@@H]3CCC4CC(c5c(-n6cnnn6)ccc(Cl)c5F)=CC(=O)N43)[nH]2)cc1F (stereo partly drawn) [Example 342, 4-[2-[(3S)-7-[3-Chloro-2-fluoro-6-(tetrazol-1-yl)phenyl]-5-oxo-2,3,8,8a-tetrahydro-1H-indolizin-3-yl]-1H-imidazol-4-yl]-2-fluoro-benzoic acid] | 0.405 | 0.0226 | – | – | – |
| CC1C[C@@H](c2ncc(-c3ccc(N)nc3Cl)[nH]2)N2C(=O)C=C(c3c(-n4cnnn4)ccc(Cl)c3F)CC12 (stereo partly drawn) [Example 347, (3S)-3-(5-(6-Amino-2-chloropyridin-3-yl)-1H-imidazol-2-yl)-7-(3-chloro-2-fluoro-6-(1H-tetrazol-1-yl)phenyl)-1-methyl-2,3,8,8a-tetrahydroindolizin-5(1H)-one] | 0.0055 | 0.0006 | – | – | – |
| CC1C[C@@H](c2ncc(-c3ccc(N)nc3F)[nH]2)N2C(=O)C=C(c3c(-n4cnnn4)ccc(Cl)c3F)CC12 (stereo partly drawn) [Example 348, (3S)-3-(5-(6-Amino-2-fluoropyridin-3-yl)-1H-imidazol-2-yl)-7-(3-chloro-2-fluoro-6-(1H-tetrazol-1-yl)phenyl)-1-methyl-2,3,8,8a-tetrahydroindolizin-5(1H)-one] | 0.0064 | 0.0005 | – | – | – |
| CC1(C)C[C@@H](c2ncc(-c3ccc(N)nc3Cl)[nH]2)N2C(=O)C=C(c3c(-n4cnnn4)ccc(Cl)c3F)CC21 (stereo partly drawn) [Example 349, (3S)-3-(5-(6-Amino-2-chloropyridin-3-yl)-1H-imidazol-2-yl)-7-(3-chloro-2-fluoro-6-(1H-tetrazol-1-yl)phenyl)-1,1-dimethyl-2,3,8,8a-tetrahydroindolizin-5(1H)-one] | 0.0056 | 0.0006 | – | – | – |
| CC1(C)C[C@@H](c2ncc(-c3ccc(N)nc3F)[nH]2)N2C(=O)C=C(c3c(-n4cnnn4)ccc(Cl)c3F)CC21 (stereo partly drawn) [Example 350, (3S)-3-(5-(6-Amino-2-fluoropyridin-3-yl)-1H-imidazol-2-yl)-7-(3-chloro-2-fluoro-6-(1H-tetrazol-1-yl)phenyl)-1,1-dimethyl-2,3,8,8a-tetrahydroindolizin-5(1H)-one] | 0.0185 | 0.0013 | – | – | – |
| O=C1C=C(c2c(-n3cnnn3)ccc(Cl)c2F)C[C@H]2CC[C@@H](c3ncc(-c4ccnc(C(F)(F)F)c4)[nH]3)N12 [Example 351, (3S,8aR)-7-(3-Chloro-2-fluoro-6-(1H-tetrazol-1-yl)phenyl)-3-(5-(2-(trifluoromethyl)pyridin-4-yl)-1H-imidazol-2-yl)-2,3,8,8a-tetrahydroindolizin-5(1H)-one] | 0.0078 | 0.0027 | – | – | – |
| Nc1ccc(-c2cnc([C@@H]3CC[C@H]4CC(c5c(-n6cnnn6)ccc(Cl)c5F)=CC(=O)N43)[nH]2)c(Cl)n1 [Example 352, (3S,8aS)-3-(5-(6-Amino-2-chloropyridin-3-yl)-1H-imidazol-2-yl)-7-(3-chloro-2-fluoro-6-(1H-tetrazol-1-yl)phenyl)-2,3,8,8a-tetrahydroindolizin-5(1H)-one] | 0.0049 | 0.0003 | – | – | – |
| O=C1C=C(c2c(-n3cnnn3)ccc(Cl)c2F)C[C@@H]2CC[C@@H](c3ncc(-c4ccnc(C(F)(F)F)c4)[nH]3)N12 [Example 353, (3S,8aS)-7-(3-Chloro-2-fluoro-6-(1H-tetrazol-1-yl)phenyl)-3-(5-(2-(trifluoromethyl)pyridin-4-yl)-1H-imidazol-2-yl)-2,3,8,8a-tetrahydroindolizin-5(1H)-one] | 0.0175 | 0.0129 | – | – | – |
| Nc1ccc(-c2cnc([C@@H]3CC[C@@H]4CC(c5c(-n6cnnn6)ccc(Cl)c5F)=CC(=O)N43)[nH]2)c(Cl)n1 [Example 354, (3S,8aR)-3-[5-(6-amino-2-chloro-3-pyridyl)-1H-imidazol-2-yl]-7-[3-chloro-2-fluoro-6-(tetrazol-1-yl)phenyl]-2,3,8,8a-tetrahydro-1H-indolizin-5-one] | 0.0026 | 0.0002 | – | – | – |
| COC(=O)Nc1ccc(-c2cnc([C@@H]3CCC4CC(c5c(-n6cnnn6)ccc(Cl)c5F)=CC(=O)N43)[nH]2)cc1 (stereo partly drawn) [Example 355, Methyl (4-(2-((3S)-7-(3-chloro-2-fluoro-6-(1H-tetrazol-1-yl)phenyl)-5-oxo-1,2,3,5,8,8a-hexahydroindolizin-3-yl)-1H-imidazol-5-yl)phenyl)carbamate] | 0.0014 | 0.0002 | – | – | – |
| Nc1ccc(-c2cnc([C@H]3CC[C@@H]4CC(c5c(-n6cnnn6)ccc(Cl)c5F)=CC(=O)N43)[nH]2)c(F)n1 [Example 356, (3R,8aR)-3-(5-(6-Amino-2-fluoropyridin-3-yl)-1H-imidazol-2-yl)-7-(3-chloro-2-fluoro-6-(1H-tetrazol-1-yl)phenyl)-2,3,8,8a-tetrahydroindolizin-5(1H)-one] | – | – | > 10 | 7.4 | – |
| Nc1ccc(-c2cnc([C@H]3CC[C@H]4CC(c5c(-n6cnnn6)ccc(Cl)c5F)=CC(=O)N43)[nH]2)c(F)n1 [Example 357, (3R,8aS)-3-(5-(6-Amino-2-fluoropyridin-3-yl)-1H-imidazol-2-yl)-7-(3-chloro-2-fluoro-6-(1H-tetrazol-1-yl)phenyl)-2,3,8,8a-tetrahydroindolizin-5(1H)-one] | – | 0.0641 | 2.3 | – | – |
| Nc1ccc(-c2cnc([C@@H]3CC[C@@H]4CC(c5c(-n6cnnn6)ccc(Cl)c5F)=CC(=O)N43)[nH]2)c(F)n1 [Example 358, (3S,8aR)-3-[5-(6-amino-2-fluoro-3-pyridyl)-1H-imidazol-2-yl]-7-[3-chloro-2-fluoro-6-(tetrazol-1-yl)phenyl]-2,3,8,8a-tetrahydro-1H-indolizin-5-one] | 0.0068 | – | – | – | 0.0003 |
| Nc1ccc(-c2cnc([C@@H]3CC[C@H]4CC(c5c(-n6cnnn6)ccc(Cl)c5F)=CC(=O)N43)[nH]2)c(F)n1 [Example 359, (3S,8aS)-3-(5-(6-Amino-2-fluoropyridin-3-yl)-1H-imidazol-2-yl)-7-(3-chloro-2-fluoro-6-(1H-tetrazol-1-yl)phenyl)-2,3,8,8a-tetrahydroindolizin-5(1H)-one] | 0.011 | 0.0005 | – | – | – |
| O=C1C=C(c2c(-n3cnnn3)ccc(Cl)c2F)C[C@H]2CC[C@@H](c3ncc(-c4ccnc5c4OCCO5)[nH]3)N12 [Example 361, (3S,8aR)-7-[3-chloro-2-fluoro-6-(tetrazol-1-yl)phenyl]-3-[5-(2,3-dihydro-[1,4]dioxino[2,3-b]pyridin-8-yl)-1H-imidazol-2-yl]-2,3,8,8a-tetrahydro-1H-indolizin-5-one] | 0.0061 | 0.0007 | – | – | – |
| Nc1ccc(-c2cnc([C@@H]3CCC4CC(c5c(-c6ccn[nH]6)ccc(Cl)c5F)=CC(=O)N43)[nH]2)c(F)n1 (stereo partly drawn) [Example 363, (3S)-3-(5-(6-Amino-2-fluoropyridin-3-yl)-1H-imidazol-2-yl)-7-(3-chloro-2-fluoro-6-(1H-pyrazol-5-yl)phenyl)-2,3,8,8a-tetrahydroindolizin-5(1H)-one] | – | > 0.1 | > 1 | – | – |
| Nc1ccc(-c2c[nH]c([C@@H]3CCC4CC(c5c(-c6cnc[nH]6)ccc(Cl)c5F)=CC(=O)N43)n2)c(F)n1 (stereo partly drawn) [Example 364, (3S)-3-(4-(6-Amino-2-fluoropyridin-3-yl)-1H-imidazol-2-yl)-7-(3-chloro-2-fluoro-6-(1H-imidazol-5-yl)phenyl)-2,3,8,8a-tetrahydroindolizin-5(1H)-one] | 0.61 | 0.087 | – | – | – |
| O=C1C=C(c2c(-n3cc(C(F)(F)F)nn3)ccc(Cl)c2F)CC2CC[C@@H](c3ncc(-c4c[nH]c5ncncc45)[nH]3)N12 (stereo partly drawn) [Example 365, (3S)-3-(5-(7H-pyrrolo[2,3-d]pyrimidin-5-yl)-1H-imidazol-2-yl)-7-(3-chloro-2-fluoro-6-(4-(trifluoromethyl)-1H-1,2,3-triazol-1-yl)phenyl)-2,3,8,8a-tetrahydroindolizin-5(1H)-one] | 0.0073 | 0.0027 | – | – | – |
| O=C1C=C(c2c(-n3cnnn3)ccc(Cl)c2F)CC2CC[C@@H](c3ncc(-c4cn[nH]c4Cl)[nH]3)N12 (stereo partly drawn) [Example 366, (3S)-3-(5-(5-chloro-1H-pyrazol-4-yl)-1H-imidazol-2-yl)-7-(3-chloro-2-fluoro-6-(1H-tetrazol-1-yl)phenyl)-2,3,8,8a-tetrahydroindolizin-5(1H)-one] | 0.019 | 0.0014 | – | – | – |
| CS(=O)(=O)Nc1nccc(-c2cnc([C@@H]3CC[C@@H]4CC(c5c(-n6cnnn6)ccc(Cl)c5F)=CC(=O)N43)[nH]2)c1F [Example 367, N-(4-(2-((3S,8aR)-7-(3-chloro-2-fluoro-6-(1H-tetrazol-1-yl)phenyl)-5-oxo-1,2,3,5,8,8a-hexahydroindolizin-3-yl)-1H-imidazol-5-yl)-3-fluoropyridin-2-yl)methanesulfonamide] | 0.0075 | 0.0004 | – | – | – |
